In PubChem BioAssay AID248 (DTP/NCI, 2004):
Where “and” joins values, the source holds several entries; their conditions need not be identical. Equal values may be shown once. Inconclusive results and toxic doses are left out.

System: L1210 leukemia ip in BDF1 mice, survival T/C
Assay: NCI In Vivo Anticancer Drug Screen. Data for tumor model L1210 Leukemia (intraperitoneal) in B6D2F1 (BDF1) mice
Details: endpoint: mean survival time, higher = longer survival
Summary of the method: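 Survival endpoint. Drug-treated group vs vehicle group, expressed as T divided by C. Tumor passaged by transplantation.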

## O=c1[nH]c(=O)n([C@H]2CCCO2)cc1F
dose: 2.5 mg/kg/injection, schedule: Q01DX009 (ip), vehicle: saline
  T/C: 97 % of control
dose: 5.0 mg/kg/injection, schedule: Q01DX009 (ip), vehicle: saline
  T/C: 98 % of control
dose: 5.0 mg/kg/injection, schedule: Q01DX009 (oral), vehicle: saline
  T/C: 102 % of control
dose: 10.0 mg/kg/injection, schedule: Q01DX009 (ip), vehicle: saline
  T/C: 100 % of control
dose: 10.0 mg/kg/injection, schedule: Q01DX009 (oral), vehicle: saline
  T/C: 103 % of control
dose: 20.0 mg/kg/injection, schedule: Q01DX009 (ip), vehicle: saline
  T/C: 103 % of control
dose: 20.0 mg/kg/injection, schedule: Q01DX009 (oral), vehicle: saline
  T/C: 112 % of control
dose: 38.9 mg/kg/injection, schedule: Q01DX009 (ip), vehicle: saline
  T/C: 97 % of control
dose: 39.0 mg/kg/injection, schedule: Q01DX009 (ip), vehicle: Klucel (hydroxypropylcellulose) (HPC)
  T/C: 111 % of control
dose: 40.0 mg/kg/injection, schedule: Q01DX009 (ip), vehicle: saline
  T/C: 101 % of control
dose: 40.0 mg/kg/injection, schedule: Q01DX009 (oral), vehicle: saline
  T/C: 107 % of control
dose: 64.8 mg/kg/injection, schedule: Q01DX009 (ip), vehicle: saline
  T/C: 107 % of control
dose: 65.0 mg/kg/injection, schedule: Q01DX009 (ip), vehicle: Klucel (hydroxypropylcellulose) (HPC)
  T/C: 123 % of control
dose: 75.0 mg/kg/injection, schedule: Q04DX003 (ip), vehicle: other
  T/C: 95 % of control
dose: 80.0 mg/kg/injection, schedule: Q01DX009 (ip), vehicle: saline
  T/C: 114 % of control
dose: 80.0 mg/kg/injection, schedule: Q01DX009 (oral), vehicle: saline
  T/C: 118 % of control
dose: 105.0 mg/kg/injection, schedule: Q01DX012 (sc), vehicle: clinical formulation
  T/C: 159 % of control
dose: 108.0 mg/kg/injection, schedule: Q01DX009 (ip), vehicle: Klucel (hydroxypropylcellulose) (HPC)
  T/C: 159 % of control
dose: 108.0 mg/kg/injection, schedule: Q04DX003 (ip), vehicle: Klucel (hydroxypropylcellulose) (HPC)
  T/C: 113 % of control
dose: 150.0 mg/kg/injection, schedule: Q04DX003 (ip), vehicle: other
  T/C: 111 % of control
dose: 160.0 mg/kg/injection, schedule: Q01DX009 (ip), vehicle: saline
  T/C: 150 % of control
dose: 160.0 mg/kg/injection, schedule: Q01DX009 (oral), vehicle: saline
  T/C: 113 % of control
dose: 164.0 mg/kg/injection, schedule: Q01DX005 (sc), vehicle: clinical formulation
  T/C: 159 % of control
dose: 164.0 mg/kg/injection, schedule: Q01DX012 (sc), vehicle: clinical formulation
  T/C: 121 % of control
dose: 168.0 mg/kg/injection, schedule: Q01DX001 (ip), vehicle: other
  T/C: 99 % of control and 107 % of control
dose: 168.0 mg/kg/injection, schedule: Q01DX001 (sc), vehicle: other
  T/C: 107 % of control and 116 % of control
dose: 205.0 mg/kg/injection, schedule: Q01DX005 (sc), vehicle: clinical formulation
  T/C: 97 % of control
dose: 205.0 mg/kg/injection, schedule: Q01DX012 (sc), vehicle: clinical formulation
  T/C: 106 % of control
dose: 240.0 mg/kg/injection, schedule: Q01DX001 (ip), vehicle: other
  T/C: 116 % of control and 121 % of control
dose: 240.0 mg/kg/injection, schedule: Q01DX001 (sc), vehicle: other
  T/C: 112 % of control and 117 % of control
dose: 256.0 mg/kg/injection, schedule: Q01DX002 (sc), vehicle: clinical formulation
  T/C: 111 % of control
dose: 256.0 mg/kg/injection, schedule: Q01DX005 (sc), vehicle: clinical formulation
  T/C: 102 % of control
dose: 300.0 mg/kg/injection, schedule: Q01DX001 (ip), vehicle: Klucel (hydroxypropylcellulose) (HPC)
  T/C: 98 % of control
dose: 300.0 mg/kg/injection, schedule: Q01DX009 (ip), vehicle: Klucel (hydroxypropylcellulose) (HPC)
  T/C: 114 % of control
dose: 300.0 mg/kg/injection, schedule: Q01DX009 (ip), vehicle: saline
  T/C: 102 % of control
dose: 300.0 mg/kg/injection, schedule: Q04DX003 (ip), vehicle: Klucel (hydroxypropylcellulose) (HPC)
  T/C: 152 % of control
dose: 300.0 mg/kg/injection, schedule: Q04DX003 (ip), vehicle: other
  T/C: 161 % of control
dose: 320.0 mg/kg/injection, schedule: Q01DX009 (ip), vehicle: saline
  T/C: 160 % of control
dose: 320.0 mg/kg/injection, schedule: Q01DX009 (oral), vehicle: saline
  T/C: 98 % of control
dose: 363.0 mg/kg/injection, schedule: Q01DX001 (ip), vehicle: other
  T/C: 121 % of control
dose: 400.0 mg/kg/injection, schedule: Q01DX001 (sc), vehicle: clinical formulation
  T/C: 121 % of control
dose: 490.0 mg/kg/injection, schedule: Q01DX001 (ip), vehicle: other
  T/C: 121 % of control
dose: 500.0 mg/kg/injection, schedule: Q01DX001 (ip), vehicle: Klucel (hydroxypropylcellulose) (HPC)
  T/C: 117 % of control
dose: 500.0 mg/kg/injection, schedule: Q01DX001 (sc), vehicle: clinical formulation
  T/C: 123 % of control
dose: 500.0 mg/kg/injection, schedule: Q01DX002 (sc), vehicle: clinical formulation
  T/C: 110 % of control
